Measurements taken from US9028845B2, “Chimeric immunomodulatory compounds and methods of using the same-IV” (Dynavax Technologies Corporation, priority 2001, dated 2015).
Entries after “also recorded” stand apart in the source; their conditions may differ.

System: human PBMCs
Assay: Human PBMC cytokine response assay (IFN-γ and IFN-α in cell-free medium by ELISA), with or without cPLGA;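 as to IFN-α (pg/ml) mean: 20 µg/mL compound for 24 hours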;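 as to IFN-γ (pg/ml) mean: 20 µg/mL compound for 24 hours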
Format: cell-based
Conditions: for IFN-a / IFN-g / IFN-a mean / IFN-g mean: Table 25; for IFN-a mean / IFN-g mean: mean of donors 28250-28253; for immunomodulatory activity (IFN-γ / IFN-α secretion), in words: used alone (no cPLGA)
[1] = donor 28250, polynucleotides/spacers at amounts equivalent to the CIC, spacers alone 9 uM
[2] = mean of donors 28057-28060, Table 16
[3] = Table 24, mean of donors 28234-28237

(5′-TCGACGT-HEG)2-glycerol-HEG-5′-ACTTAGAGGTTCAGTAGG-3′ (SEQ ID NO: 157) (DNA, all phosphorothioate, methylation of C not given here; Two heptamer DNA arms joined by HEG spacers and glycerol branching to the chain) [Compound C-202]
IFN-α (Example 59, 0.8 ug/ml, donor 48): 830 pg/mL
IFN-α (Example 59, 0.8 ug/ml, donor 177): 102 pg/mL
IFN-α (Example 59, 0.8 ug/ml, donor 272): 102 pg/mL
IFN-α (Example 59, 0.8 ug/ml, donor 273): 102 pg/mL
IFN-α mean (Example 59, 0.8 ug/ml, mean of four donors): 284 pg/mL
IFN-α (Example 59, 4 ug/ml, donor 48): 2250 pg/mL
IFN-α (Example 59, 4 ug/ml, donor 177): 2482 pg/mL
IFN-α (Example 59, 4 ug/ml, donor 272): 1222 pg/mL
IFN-α (Example 59, 4 ug/ml, donor 273): 215 pg/mL
IFN-α mean (Example 59, 4 ug/ml, mean of four donors): 1542 pg/mL
IFN-α (Example 59, 20 ug/ml, donor 48): 1901 pg/mL
IFN-α (Example 59, 20 ug/ml, donor 177): 2742 pg/mL
IFN-α (Example 59, 20 ug/ml, donor 272): 612 pg/mL
IFN-α (Example 59, 20 ug/ml, donor 273): 339 pg/mL
IFN-α mean (Example 59, 20 ug/ml, mean of four donors): 1399 pg/mL

OCC(O)CO [Glycerol]
IFN-a (donor 28250): 16 pg/mL
IFN-g [1]: 16 pg/mL
IFN-a (donor 28251): 16 pg/mL
IFN-g (donor 28251): 12 pg/mL
IFN-a (donor 28252): 16 pg/mL
IFN-g (donor 28252): 2 pg/mL
IFN-a (donor 28253): 16 pg/mL
IFN-g (donor 28253): 1 pg/mL
IFN-a mean: 16 pg/mL
IFN-g mean: 8 pg/mL

5′-TCGTCG-3′-(TEG)8-5′-T-3′ [Compound C-15]
IFN-α (donor 28057, Table 16): 0 pg/mL
IFN-γ (donor 28057, Table 16): 5 pg/mL
IFN-α (donor 28058, Table 16): 0 pg/mL
IFN-γ (donor 28058, Table 16): 3 pg/mL
IFN-α (donor 28059, Table 16): 0 pg/mL
IFN-γ (donor 28059, Table 16): 0 pg/mL
IFN-α (donor 28060, Table 16): 0 pg/mL
IFN-γ (donor 28060, Table 16): 1 pg/mL
activity when formulated with cPLGA, in words: all had significant activity when formulated on cPLGA
IFN-α (pg/ml) mean [2]: 0 pg/mL
IFN-γ (pg/ml) mean [2]: 2 pg/mL
immunomodulatory activity (IFN-γ / IFN-α secretion), in words: None of the CICs was active when used alone

5′-TCGAGAT-3′ [Compound P-13, reference compound]
IFN-a (donor 28250): 16 pg/mL
IFN-g [1]: 18 pg/mL
IFN-a (donor 28251): 16 pg/mL
IFN-g (donor 28251): 13 pg/mL
IFN-a (donor 28252): 16 pg/mL
IFN-g (donor 28252): 22 pg/mL
IFN-a (donor 28253): 16 pg/mL
IFN-g (donor 28253): 1 pg/mL
IFN-a mean: 16 pg/mL
IFN-g mean: 14 pg/mL

(5′-TCGTCGA-3′-HEG)2-glycerol-HEG-5′-TCGTCGA-3′ (phosphodiester) [Compound C-93]
IFN-α (Table 9, donor 28089): 0 pg/mL
IFN-γ (Table 9, donor 28089): 0 pg/mL
IFN-α (Table 9, donor 28090): 30 pg/mL
IFN-γ (Table 9, donor 28090): 0 pg/mL
IFN-α (Table 9, donor 28098): 25 pg/mL
IFN-γ (Table 9, donor 28098): 0 pg/mL
IFN-α (Table 9, donor 28099): 29 pg/mL
IFN-γ (Table 9, donor 28099): 3 pg/mL
IFN-α mean (Table 9, mean of donors): 21 pg/mL
IFN-γ mean (Table 9, mean of donors): 1 pg/mL
IFN-α (Table 11, donor 28042): 7 pg/mL
IFN-γ (Table 11, donor 28042): 8 pg/mL
IFN-α (Table 11, donor 28043): 3 pg/mL
IFN-γ (Table 11, donor 28043): 1 pg/mL
IFN-α (Table 11, donor 28044): 81 pg/mL
IFN-γ (Table 11, donor 28044): 41 pg/mL
IFN-α (Table 11, donor 28045): 61 pg/mL
IFN-γ (Table 11, donor 28045): 17 pg/mL
IFN-α mean (Table 11, mean of donors): 38 pg/mL
IFN-γ mean (Table 11, mean of donors): 17 pg/mL
activity when formulated with cPLGA, in words: significantly more active when formulated with cPLGA; also recorded: active only when formulated
immunomodulatory activity (IFN-γ / IFN-α secretion), in words: inactive as CICs alone

5′-TCGTCGA-3′-HEG-5′-AACGTTC-3′-HEG-5′-TCGTCGA-3′ [Compound C-55]
IFN-α (Table 13, donor 28156): 9 pg/mL
IFN-γ (Table 13, donor 28156): 511 pg/mL
IFN-α (Table 13, donor 28157): 5 pg/mL
IFN-γ (Table 13, donor 28157): 566 pg/mL
IFN-α (Table 13, donor 28158): 63 pg/mL
IFN-γ (Table 13, donor 28158): 55 pg/mL
IFN-α (Table 13, donor 28159): 3 pg/mL
IFN-γ (Table 13, donor 28159): 186 pg/mL
IFN-α mean (Table 13, mean of donors): 20 pg/mL
IFN-γ mean (Table 13, mean of donors): 329 pg/mL

5′-TCGTCGA-3′-C3-5′-TCGTCGA-3′-C3-5′-TCGTCGA-3′ [Compound C-90]
IFN-α (Table 24, donor 28234): 16 pg/mL
IFN-γ (Table 24, donor 28234): 7 pg/mL
IFN-α (Table 24, donor 28235): 46 pg/mL
IFN-γ (Table 24, donor 28235): 118 pg/mL
IFN-α (Table 24, donor 28236): 117 pg/mL
IFN-γ (Table 24, donor 28236): 497 pg/mL
IFN-α (Table 24, donor 28237): 345 pg/mL
IFN-γ (Table 24, donor 28237): 1586 pg/mL
IFN-α mean [3]: 131 pg/mL
IFN-γ mean [3]: 552 pg/mL
IFN-γ induction, in words (used alone): similar
